Tests used:
[1] = tested on: T1 cells (liver tumour cells); assay: Cell proliferation assay (MTS) in T1 hepatic tumour cells; type: cell-based, mice; settings: for inhibition of cell proliferation in liver tumour cells: FIG. 1, after 24 and 48 hours exposure; for concentration at which proliferation is already inhibited / concentration reaching the peak activity (inhibition of proliferation): hepatic tumour cell cultures (T1), 24 and 48 hours exposure
Method: (§1) Tumour cell cultures (T1) used in the tests derive from transgenic mice hepatocellular carcinoma, in which an over-expression of the c-myc and TGFα had been induced. Cells were kept in L-glutamine-free DMEM medium, HAM F 12 containing 1 mg/ml galactose, 18 mM HEPES, 5 mM Na piruvate, 30 mg/M1 proline, ITS 100×, 2 mM glutamine, 0.1% gentamicin (Sigma-Aldrich, Italy) and added with 10% FBS. Cell lines were cultured in polystyrene plates (Dasit, Italy).
T1 cells were plated in 96 wells-plates at a concentration of 10,000 cells/well and left to sediment for 4-5 hours. Cells were then incubated in EGCG or ECG at a concentration of 20, 40, 60, 80, 160 μg/ml for 24 and 48 hours. The substances were diluted in the culture medium starting from stock solutions (aqueous solution for EGCG and aqueous-ethanol solution (1:1) for ECG). Control cells were treated with solutions containing ethanol in amounts corresponding to that of the samples containing catechins. After 24 or 48 hours, the proliferation was calorimetrically measured using a specific kit (Cell Titer Aqueous Cell Proliferation Assay, Promega) which makes use of a calorimetric transformation reaction of colourless MTS (tetrazolium salt) into coloured formazan by living, proliferating cells. Formazan quantitation was carried out by spectrophotometric analysis at λ=490 nm.

caspase 3 = assay: Evaluation of caspase 3 activation in T1 cell lysates; type: cell-based, mice; settings: 80 μg/ml, compared with untreated cells; FIG. 2
Method: as §1
Caspase 3 protease activity in cells lysates was determined using a Promega kit. T1 Cells were treated with EGCG and ECG (80 μg/ml) alone or in combination with a caspase inhibitor (Z-VAD-FMK) for 24 or 48 hours. Afterwards a calorimetric substrate (DEVD-pNA) able to evidence the protease activity was added. After incubation for 4 hours at 37° C., the protease activity was determined by spectrophotometric analysis at λ=405 nm.

| SMILES | inhibition of cell proliferation in liver tumour cells [1] | concentration at which proliferation is already inhibited [1] [µg/mL] | concentration reaching the peak activity (inhibition of proliferation) [1] [µg/mL] | caspase 3 protease activity (caspase 3) |
| --- | --- | --- | --- | --- |
| Oc1cc(O)c2c(c1)O[C@H](c1cc(O)c(O)c(O)c1)[C@H](O)C2 [EGC, epigallocatechin] | dose-dependent | – | – | – |
| O=C(O[C@@H]1Cc2c(O)cc(O)cc2O[C@@H]1c1cc(O)c(O)c(O)c1)c1cc(O)c(O)c(O)c1 [EGCG, (−)-epigallocatechin-3-gallate] | dose-dependent | 40 | 80 | activation |
| O=C(O[C@@H]1Cc2c(O)cc(O)cc2O[C@@H]1c1ccc(O)c(O)c1)c1cc(O)c(O)c(O)c1 [ECG, (−)-epicatechin-3-gallate] | – | 40 | 80 | activation |

From patent US20090117215A1, “EXTRACT OF CERATONIA SILIQUA LEAVES AND PODS CONTAINING POLYPHENOLS WITH ANTIOXIDANT AND ANTITUMOR ACTIVITIES” (priority 2001, published 2009)
